Earlier results as cited in patent publication US6660287B1, “Prevention of spoilage of produce using acidified expanded amorphous aluminum silicate impregnated with chlorite” (Bio-Cide International, Inc., priority 1999, dated 2003).

Tested on: mice

| Compound | chromosomal aberrations or increased numbers of micronuclei in the bone marrow (subchronic and acute oral administration, mice (Meier et al.)) | mutagenic potential (mouse, in vivo, po) |
| --- | --- | --- |
| [O][Cl+][O-] [chlorine dioxide] | failed to induce any chromosomal aberrations or increased numbers of micronuclei |  |
| OCl [hypochlorite] |  | weak positive effect |
